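In this assay, cells in 96-well plates receive the compound at five concentrations for 48 hours. Endpoints are linearly interpolated between the surrounding concentrations. GI50 marks 50% less growth. The concentration for full growth arrest is given as TGI.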
Key:
Test in all cases: NCI-60 cell line screen, 48 h
KM12 colon = system: KM12 colon
A498 renal = system: A498 renal
HCT-116 colon = system: HCT-116 colon
HCC-2998 colon = system: HCC-2998 colon
CCRF-CEM leukemia = system: CCRF-CEM leukemia
MDA-MB-231 breast = system: MDA-MB-231 breast
MDA-MB-435 = system: MDA-MB-435
TK-10 renal = system: TK-10 renal
HOP-92 NSCLC = system: HOP-92 NSCLC
U251 CNS = system: U251 CNS

SMILES	GI50 (KM12 colon)	TGI (KM12 colon)	GI50 (A498 renal)	TGI (A498 renal)	GI50 (HCT-116 colon)	TGI (HCT-116 colon)	GI50 (HCC-2998 colon)	TGI (HCC-2998 colon)	GI50 (CCRF-CEM leukemia)	TGI (CCRF-CEM leukemia)	GI50 (MDA-MB-231 breast)	TGI (MDA-MB-231 breast)	GI50 (MDA-MB-435)	TGI (MDA-MB-435)	GI50 (TK-10 renal)	TGI (TK-10 renal)	GI50 (HOP-92 NSCLC)	TGI (HOP-92 NSCLC)	GI50 (U251 CNS)	TGI (U251 CNS)
Nc1ccccc1-c1ccc([N+](=O)[O-])cc1	1.59 µM	11.4 µM	29 µM	> 100 µM	3.4 µM	> 100 µM	2.25 µM	8.54 µM	2.31 µM	> 100 µM	36.3 µM	> 100 µM	5.01 µM	> 100 µM	25.9 µM	> 100 µM	17.9 µM	97.6 µM	40.7 µM	> 100 µM
Cc1ccc2c(c1)c1nc3cc(C)c(C)cc3nc1n2CCN(C)C	2.67 µM	10.5 µM	1.77 µM	3.34 µM	0.63 µM	10.1 µM	1.79 µM	3.98 µM	2.05 µM	10.6 µM	2.11 µM	8.5 µM	1.98 µM	4.42 µM	2.11 µM	7.94 µM	1.09 µM	4.42 µM	2.3 µM	8.85 µM
O=S(=O)(Cc1ccc(Cl)cc1Cl)c1ccc(Cl)cc1	0.372 µM	> 100 µM	0.317 µM	16.3 µM	0.471 µM	> 100 µM	1.09 µM	8.97 µM	0.505 µM	> 100 µM	2.38 µM	> 61.6 µM	0.13 µM	0.671 µM	1.01 µM	> 53.9 µM	20.8 µM	> 92.5 µM	0.496 µM	> 100 µM
Nc1cc(C(=O)O)[nH]c(=O)n1		> 100 µM		> 100 µM		> 100 µM		> 100 µM		> 100 µM		> 100 µM		> 100 µM		> 100 µM		> 100 µM		> 100 µM
Cc1ccc(NC(=O)Cc2ccc(/C=C/C(=O)c3ncc[nH]3)cc2)cc1	3.09 µM	12.7 µM	19.9 µM	> 25 µM	3.28 µM	9.59 µM	6.73 µM	> 25 µM	4.67 µM	> 25 µM	9.46 µM	> 25 µM	5.68 µM	> 25 µM	7.93 µM	> 25 µM	18.5 µM	> 25 µM	1.59 µM	> 25 µM
N=C(N)c1ccc(OCCOCCOc2ccc(C(=N)N)cc2)cc1	41.6 µM	> 100 µM	63.7 µM	> 100 µM	> 100 µM	> 100 µM	> 100 µM	> 100 µM	1 µM	> 100 µM	> 100 µM	> 100 µM	84.8 µM	> 100 µM	39.2 µM	> 100 µM	74.6 µM	> 100 µM	77.6 µM	> 100 µM
CCC1C(=O)OCc2c1cc1n(c2=O)Cc2cc3ccccc3nc2-1 (centres undefined)		> 100 µM		49 µM		> 100 µM		> 100 µM				> 100 µM		> 100 µM		> 100 µM		> 100 µM		> 43 µM
Clc1ccc(/C=C/c2cc(N3CCOCC3)c3cc(Cl)c(Cl)cc3n2)cc1	> 51.4 µM	> 100 µM	> 100 µM	> 100 µM	> 100 µM	> 100 µM	> 100 µM	> 100 µM	0.302 µM	> 51 µM	11.1 µM	> 100 µM	> 100 µM	> 100 µM	> 100 µM	> 100 µM	> 100 µM	> 100 µM	> 100 µM	> 100 µM
O=C1CC(c2cccc(O)c2)C2(C(=O)NC(=S)NC2=O)C(c2cccc(O)c2)C1 (centres undefined)	> 100 µM	> 100 µM	> 100 µM	> 100 µM	> 100 µM	> 100 µM	> 100 µM	> 100 µM	> 100 µM	> 100 µM	> 100 µM	> 100 µM	> 100 µM	> 100 µM	> 100 µM	> 100 µM	> 100 µM	> 100 µM	> 100 µM	> 100 µM
N#Cc1ncc(-c2ccc(C(F)(F)F)cc2)c(NCc2cc(C(F)(F)F)cc(C(F)(F)F)c2)n1	3.17 µM	10.1 µM	2.08 µM	7.71 µM	2.93 µM	> 100 µM	4.17 µM	> 100 µM	2.26 µM	49.8 µM	3.17 µM	12.6 µM	3.42 µM	> 100 µM	5.84 µM	56 µM	2.14 µM	5.74 µM	3.66 µM	53.5 µM
CN(Cc1ccc(Cl)cc1)c1ccc(CO)c(Cl)c1	13 µM	27.2 µM	0.0464 µM	0.179 µM	0.445 µM	8.75 µM	9.36 µM	22.1 µM	15.1 µM	> 66.3 µM	11 µM	29.9 µM	13.5 µM	27.9 µM	0.268 µM	1.68 µM	3.16 µM	16.1 µM	3.01 µM	15.9 µM
CCCc1cc(O)c2c3c(c(=O)oc2c1)CN(C)CC3	87.3 µM	> 100 µM	15.8 µM	98.5 µM	66.8 µM	> 100 µM	30.7 µM	69.7 µM	69.1 µM	> 100 µM	35 µM	> 100 µM	43.5 µM	> 100 µM	> 100 µM	> 100 µM	15.7 µM	> 100 µM	56.4 µM	> 100 µM
CCC[CH2][Sn]([CH2]CCC)([O]C(=O)c1cc(F)ccc1F)[O][Sn]([CH2]CCC)([CH2]CCC)[O]C(=O)c1cc(F)ccc1F	0.999 µM	2.32 µM	0.238 µM	0.631 µM	0.293 µM	1.24 µM	0.669 µM	1.92 µM	0.0113 µM	2.7 µM	0.436 µM	1.63 µM	0.446 µM	1.67 µM	0.226 µM	0.616 µM	0.148 µM	0.491 µM	0.175 µM	0.584 µM

Reference: PubChem BioAssay (NCI)
